Measurements reported in patent US6919344B2, “N-substituted indole-3-glyoxylamides having anti-asthmatic, antiallergic and immunosuppressant/immuno-modulating action” (ASTA MEDICA, Aktiengesellschaft, priority 1996, dated 2005).

How the values were obtained:
[1] = system: lymphoproliferation; experiment: Inhibition of lymphoproliferation (colorimetric MTT assay); type: cell-based
Source text: Colorimetric Assay (Based on the MTT Test) for the Non-Radioactive Quantification of Cell Proliferation and Survival Ability
MTT is used for the quantitative determination of cell proliferation and activation, for example, in the reaction on growth factors and cytokines such as IL-2 and IL-4 and also for the quantification of the antiproliferative or toxic effects.
The assay is based on the cleavage of yellow tetrazolium salt MTT to give purple-red formazan crystals by metabolically active cells.
The cells, cultured in a 96-hole tissue culture plate, are incubated for about 4 h with yellow MTT solution. After this incubation time, purple-red formazan salt crystals are formed. These salt crystals are insoluble in aqueous solutions, but can be dissolved by addition of solubilizer and by incubation of the plates overnight.
The dissolved formazan product is quantified spectrophotometrically using an ELISA reader. An increase in the number of living cells results in an increase in the total metabolic activity in the sample. This increase correlates directly with the amount of the purple-red formazan crystals formed, which are [sic] measured by the absorption.

[2] = molecular target: recombinant human Cyp B (Homo sapiens, UniProt P23284); experiment: Peptidylprolyl isomerase (PPIase) activity inhibition assay; type: biochemical; settings: Cyp B incubated with 1 μM substance for 15 min, 10° C.
Sequence of recombinant human Cyp B (P23284 34-216): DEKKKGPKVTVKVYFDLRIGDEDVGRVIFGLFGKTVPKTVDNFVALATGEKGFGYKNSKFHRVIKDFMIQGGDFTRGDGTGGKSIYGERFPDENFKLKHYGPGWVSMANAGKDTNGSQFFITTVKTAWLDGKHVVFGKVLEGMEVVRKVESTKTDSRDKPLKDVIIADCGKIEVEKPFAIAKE
Protocol: Assays for the Determination of Peptidylprolyl Isomerase (PPIase) Activity and Inhibition
The PPIase activity of the cyclophilins was measured enzymatically according to Fischer et al. (1984). After isomerization of the substrate by the peptidyl prolyl isomerase, this is accessible to chymotrypsin, which cleaves the chromophore p-nitroaniline. For the determination of inhibition of the PPIase activity by substance, recombinant human Cyp B was used. The interaction of Cyp B with a potential inhibitor was carried out as follows:
A certain concentration of purified Cyp B was incubated with 1 μM substance for 15 min. The PPIase reaction was started by addition of the substrate solution to the reaction mixture which contains HEPES buffer, chymotrypsin and either test or control samples. Under these conditions, first-order kinetics were obtained with a constant Kobserved=K0+Kenz, where K0 is the spontaneous isomerization and Kenz is the rate of isomerization of the PPIase activity. The extinction values which correspond to the amount of the chromophore cleaved were measured using a Beckman DU 70 spectrophotometer at a constant reaction temperature of 10° C.
The observed residual activity in the presence of various substances was compared with the cyclophilins only treated with solvent. The results were given in % residual activity. Cyclosporin A (CsA) was used as the reference compound. […]

[3] = system: CD3-induced IL-2 production; experiment: Inhibition of CD3-induced IL-2 production; type: cell-based
[4] = system: "late phase" eosinophilia in the BAL; experiment: Inhibition of the "late phase" eosinophilia in the BAL 24 hours after allergen challenge in guinea pigs; type: in vivo
Protocol: Inhibition of the “Late Phase” eosinophilia in the BAL 24 Hours after Allergen Challenge in Guinea Pigs
Male guinea pigs (200-250 g, Dunkin Hartley Shoe) were actively sensitized subcutaneously with ovalbumin (10 μg of ovalbumin+1 mg of Al(OH)3) and boosted 2 weeks later. One week after boosting with ovalbumin, the animals were exposed to an inhalation challenge with ovalbumin (0.5% strength solution) for 20-30 seconds. 24 hours later, the animals were killed by means of an overdose of urethane, exsanguinated and a bronchoalveolar lavage (BAL) was carried out using 2×5 ml of 0.9% strength physiological saline solution.
The lavage fluid was collected and centrifuged at 400 g for 10 minutes, and the pellets were suspended in 1 ml of 0.9% strength physiological saline solution. The eosinophils were counted microscopically in a Neubauer chamber after staining by means of Becton Dickinson test kit No. 5877. This test kit contains Phloxin B as a selective stain for eosinophils. The eosinophils in the BAL was [sic] counted here for each animal and expressed as eosinophils (millions/animal). For each group the mean value and standard deviation were determined. The percentage inhibition of eosinophilia for the group treated with test substance was calculated according to the following formula: (A−B)−(B−C)/(A−C)×100=% inhibition in this formula A eosinophils correspond to the untreated challenge group, B eosinophils to the treated group and C eosinophils to the unchallenged control group.
The animals were treated with a histamine H1 antagonist (azelastine; 0.01 mg/kg p.o.) 2 hours before allergen challenge to avoid death. The administration of the test substances or of the vehicle was carried out 4 hours after allergen challenge.

`O=C(Nc1ccncc1)C(=O)c1cn(Cc2ccc(F)cc2)c2ccccc12` [Ex. 1, N-(Pyridin-4-yl)-[1-(4-fluorobenzyl)indol-3-yl]glyoxylamide] showed an inhibition at 0.1 µM ([1]; Conc. 0.1 μM) of 18%, an inhibition at 1 µM ([1]; Conc. 1 μM) of 39% and an inhibition at 10 µM ([1]; Conc. 10 μM) of 61%. The “Inhibition of PPIase activity” value [2] was 80-100%, the inhibition at 0.1 µM ([3]; Conc. 0.1 μM) was 34% and the inhibition at 1 µM ([3]; Conc. 1 μM) was 72%. The inhibition at 10 µM ([3]; Conc. 10 μM) was 95%, the “% Inhibition of the "late phase" eosinophilia 24 h after allergen challenge” value (shortened to “% Inhibition”) ([4]; 5 mg/kg i.p. + 4 h after allergen challenge) was 27.8% and the “% Inhibition” value ([4]; 10 mg/kg i.p. + 4 h after allergen challenge) was 55.4%. For the same molecule, the “% Inhibition” value ([4]; 30 mg/kg p.o. + 4 h after allergen challenge) was 56.1%.
